Reference: article PMC9811519 (RSC Chemical Biology, 2022)
Where a SMILES comes first, the peptide text is derived from it. The star is where a group is joined. X1 = O=C(O)CN(CCN(CC(=O)O)CC(=O)O)CCN(CC(=O)O)CC(=O)NCCN1C(=O)CC(*)C1=O; Myristoyl = CCCCCCCCCCCCCC(=O)*

Tests used:
[1] = system: 5T33 murine myeloma cells; assay: Comparative cell uptake (cell radiolabelling yield), 10^5 cells, 2 MBq; format: cell-based
Protocol: Cell pellets were obtained by centrifugation, washed and gamma-counted.
(§1) After cell labelling, cells were washed twice with PBS and 300 μL of fresh growth media was added. Uptake efficiency was quantified at this time-point by measuring pellet and supernatant in the γ-counter. At 2, 5 and 20 h after addition of fresh media, cells were washed twice and activity in both the supernatant (original supernatant and washes) and pellet was measured using a γ-counter. Efflux was quantified as the activity of the supernatant divided by the total activity (supernatant + pellet). Cell viability was assessed prior to radiolabelling and at each time point by trypan blue exclusion.[54]

[2] = system: 5T33 murine myeloma cells; assay: Efflux / retention of indium-111 by radiolabelled cells; format: cell-based; settings: 5T33 cells washed after radiolabelling, γ-counter, SD of 3 biological replicates
Protocol: To measure efflux, cells were washed after radiolabelling and re-incubated in fresh growth medium for 2–20 h.
as §1

[3] = system: 5T33 murine myeloma cells; assay: Cell viability, trypan blue exclusion assay
Protocol: Cell viability was assessed using a trypan blue exclusion assay (Fig. 2(d) and (e)).
as §1

[4] = system: NSG male mice; assay: SPECT/CT imaging and ex vivo biodistribution; format: in vivo, mouse
Protocol: A SPECT/CT scan was acquired for 2 h immediately after injection (Fig. 3(a)).
Animal imaging studies were ethically reviewed by an Animal Welfare & Ethical Review Board at King's College London and carried out in accordance with the Animals (Scientific Procedures) Act 1986 (ASPA) UK Home Office regulations governing animal experimentation. […] Animals were maintained under isoflurane inhalation anaesthesia (2– 2.5% Isoflurane in air) for 2 h post-injection. […] The whole body SPECT scan time was 30 min × 4, (conducted sequentially) with a frame time of 40 s (using a 4-head scanner with 4 × 9 [1.4 mm] pinhole collimators in helical scanning mode) followed by a helical CT (45 kVP X-ray source, 1000 ms exposure time in 180 projections over 7.5 min). After this, animals were allowed to recover. SPECT/CT scans were acquired again, 1 day PI, after which all animals were culled (by increasing the dose of anaesthesia followed by cervical dislocation to confirm death) and organs/tissues harvested, weighed and radioactivity counted using a gamma counter. SPECT/CT images were reconstructed in a 256 × 256 matrix using HiSPECT (ScivisGmbH), a reconstruction software package and visualised and quantified using VivoQuant v.3.0 software (InVicro LLC., Boston, USA).

Structure (SMILES)	Cell radiolabelling yield ([1]; 1 × 10^5 5T33 cells in 200 μL, 2 MBq, 37 °C, DTPA-CTP tracer 3 h in serum-containing media, oxine tracer 30 min in serum-free media, washed, γ-counted, SD of 3 biological replicates) [%AR]	Average radioactivity per cell ([1]; 1 × 10^5 5T33 cells, 2 MBq added radioactivity, corresponds to the cell radiolabelling yield) [Bq per cell]	Indium-111 remaining associated with cells ([2]; 2 h after re-incubation in fresh growth medium) [%]	Indium-111 remaining associated with cells ([2]; 20 h after re-incubation in fresh growth medium) [%]	Cells viable after radiolabelling ([3]; 5T33 cells, 20 h after radiolabelling, trypan blue exclusion, prior to radiolabelling 89 ± 4% (DTPA-CTP group) and 96 ± 0.3% (oxine group), 3 biological replicates) [%]	Localisation of indium-111 activity by SPECT/CT ([4]; NSG male mice, intravenous via tail vein, 0–2 h PI, one animal per group scanned)	Time to dissociation from cell membranes post-administration of cells ([4]; [^111In]In-DTPA-CTP-labelled 5T33 cells, intravenous, NSG mice, inferred from SPECT) [h]	Cells viable after radiolabelling ([3]; 20 h) [%]
[111In+3].[O-]c1cccc2cccnc12.[O-]c1cccc2cccnc12.[O-]c1cccc2cccnc12 [[^111In]In-(oxine)3]	20.6 ± 6.1	4.1 ± 1.0	76.0 ± 5.1	46.0 ± 9.6	74 ± 6	–	–	–
CCCCCCCCCCCCCC(=O)NCCCC[C@H](NC(=O)CCCCCCCCCCCCC)C(=O)N[C@@H](CO)C(=O)N[C@@H](CO)C(=O)N[C@@H](CCCCN)C(=O)N[C@@H](CO)C(=O)N1CCC[C@H]1C(=O)N[C@@H](CO)C(=O)N[C@@H](CCCCN)C(=O)N[C@@H](CCCCN)C(=O)N[C@@H](CC(=O)O)C(=O)N[C@@H](CC(=O)O)C(=O)N[C@@H](CCCCN)C(=O)N[C@@H](CCCCN)C(=O)N1CCC[C@H]1C(=O)NCC(=O)N[C@@H](CC(=O)O)C(=O)N[C@@H](CSC1CC(=O)N(CCNC(=O)CN(CCN(CCN(CC(=O)O)CC(=O)O)CC(=O)O)CC(=O)O)C1=O)C(=O)O (some centres unmarked) [[^111In]In-DTPA-CTP, metal not drawn] (Myristoyl-K(Myristoyl)SSKSPSKKDDKKPGDC(X1)-OH)	–	–	–	–	–	indium-111 activity in the blood pool and liver	1 to 2	88 ± 2
